Experimental data from PubChem BioAssay (NCI).
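Five concentrations, 48 hours, 96-well plates. Abbreviation: GI50, concentration required for 50% inhibition of growth. The concentration for full growth arrest is given as TGI.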

Assays:
Assay in all cases: DTP human tumour cell line panel, 48 h
OVCAR-4 ovarian = system: OVCAR-4 ovarian
TK-10 renal = system: TK-10 renal
SF-539 CNS = system: SF-539 CNS
UACC-257 melanoma = system: UACC-257 melanoma
SW-620 colon = system: SW-620 colon
IGROV1 ovarian = system: IGROV1 ovarian
SR leukemia = system: SR leukemia
NCI-H460 lung = system: NCI-H460 lung
SF-268 CNS = system: SF-268 CNS
UACC-62 melanoma = system: UACC-62 melanoma

Row | Structure (SMILES) | GI50 (OVCAR-4 ovarian) [µM] | TGI (OVCAR-4 ovarian) [µM] | GI50 (TK-10 renal) [µM] | TGI (TK-10 renal) [µM] | GI50 (SF-539 CNS) [µM] | TGI (SF-539 CNS) [µM] | GI50 (UACC-257 melanoma) [µM] | TGI (UACC-257 melanoma) [µM] | GI50 (SW-620 colon) [µM] | TGI (SW-620 colon) [µM] | GI50 (IGROV1 ovarian) [µM] | TGI (IGROV1 ovarian) [µM] | GI50 (SR leukemia) [µM] | TGI (SR leukemia) [µM] | GI50 (NCI-H460 lung) [µM] | TGI (NCI-H460 lung) [µM] | GI50 (SF-268 CNS) [µM] | TGI (SF-268 CNS) [µM] | GI50 (UACC-62 melanoma) [µM] | TGI (UACC-62 melanoma) [µM]
1 | O=C(c1cccs1)C1NO[N+]([O-])=C1c1cccs1 (stereo not given) | 2.13 | 4.97 | 2.45 | 6.27 | 1.86 | 3.39 | 5.16 | 15.3 | 1.54 | 3.01 | 1.75 | 3.72 | 2.08 | 4.73 | 5.37 | 13.1 | 2.35 | 5.98 | 12.1 | 24.8
2 | [2H]c1nc(=Nc2cc(NC(=O)C=C)c(N(C)CCN(C)C)cc2OC)[nH]c(-c2cn(C([2H])([2H])[2H])c3ccccc23)c1[2H] | 3.27 | 17.3 | 0.0802 | 3.8 | 1.47 | 2.96 | 2.19 | 3.88 | 1.86 | 3.87 | 0.122 | 2.04 | 1.23 | 4.02 | 1.9 | 4.37 | 1.98 | 13 | 1.72 | 3.28
3 | Cc1cccc(N=Nc2ccc(N=Nc3c(O)ccc4ccccc34)cc2C)c1 | – | > 100 | – | > 100 | – | > 100 | – | > 100 | – | > 100 | – | > 100 | – | 49.5 | – | > 100 | – | > 100 | – | > 100
4 | c1cnn2ncc(-c3ccnc(Nc4ccc5c(c4)OCCO5)n3)c2c1 | 0.269 | > 25 | 0.0685 | 0.224 | 0.0679 | 0.222 | 0.0671 | 0.198 | 0.0786 | 0.383 | 0.0815 | > 25 | 0.0466 | – | 0.0731 | 0.258 | 0.0687 | 0.311 | 0.0475 | 0.113
5 | CC(=Nc1ccc(S(N)(=O)=O)cc1)c1c(O)[nH]c2ccccc12 | > 25 | > 25 | > 25 | > 25 | > 25 | > 25 | > 25 | > 25 | > 18.5 | > 25 | > 25 | > 25 | > 25 | > 25 | > 23.9 | > 25 | > 25 | > 25 | > 25 | > 25
6 | Cc1cc2c(cc1Cl)S/C(=C/C(=O)O)C(Nc1cccc3nsnc13)=NS2(=O)=O | 18.7 | 42.7 | > 58 | > 72.5 | – | – | > 57.9 | > 70.7 | 44.8 | > 67.6 | > 49.9 | > 78.3 | 32.8 | > 100 | > 39.8 | > 65.1 | 49.2 | > 84.4 | 43 | > 66.2
7 | COc1ccc(C2=C(N3CCc4ccccc43)C(=O)NC2=O)cc1 | > 25 | > 25 | > 24.2 | > 25 | > 25 | > 25 | > 25 | > 25 | > 25 | > 25 | > 25 | > 25 | 13.7 | > 25 | > 25 | > 25 | > 25 | > 25 | > 19.9 | > 25
8 | COc1cccc(COc2cc(-n3cnc4ccccc43)sc2C(N)=O)c1 | > 25 | > 25 | > 25 | > 25 | 16 | > 25 | > 25 | > 25 | > 11.1 | > 25 | > 23.8 | > 25 | 6.98 | > 25 | 9.23 | > 25 | 5.88 | > 25 | 18.1 | > 25
9 | c1ccc2[nH]c(CNc3ccc(C4C[Se]N=N4)cc3)nc2c1 (stereo not given) | – | > 100 | – | > 100 | – | > 100 | – | – | – | > 100 | – | > 100 | – | 36 | – | > 100 | – | > 100 | – | 99
10 | CCOC(=O)c1c(SCCN2CCOCC2)n(-c2ccccc2)c(=S)n(-c2ccccc2)c1=O | – | > 100 | – | > 100 | – | – | – | 48.1 | – | 41.6 | – | > 100 | – | 48.2 | – | > 100 | – | > 100 | – | > 100
11 | CN(C)C(=S)Nc1nnc(Nc2ccccc2)s1 | – | > 100 | – | – | – | > 100 | – | > 100 | – | > 100 | – | > 100 | – | > 100 | – | > 100 | – | – | – | –
12 | O=C1CNS(=O)(=O)N1 | – | > 100 | – | > 100 | – | > 100 | – | > 100 | – | > 100 | – | > 100 | – | > 100 | – | – | – | > 100 | – | > 100
13 | C=C1C2Oc3ccccc3C1N(c1ccccc1)O2 (stereo not given) | – | 75.3 | – | > 100 | – | 57.3 | – | > 100 | – | > 100 | – | > 100 | – | > 100 | – | 55.5 | – | > 100 | – | –
14 | COC(=O)c1ccc2c(c1)C(=O)c1c-2n(CCCN=[N+]=[N-])c(=O)c2cc([N+](=O)[O-])ccc12 | > 100 | > 100 | 29.6 | 68.6 | 53.1 | > 100 | > 100 | > 100 | > 100 | > 100 | 21 | > 100 | – | – | 38.1 | > 100 | 17.3 | > 100 | 37.2 | > 100
15 | C=CCNC(=O)N(CCC)CCCC(NC(C)=O)C(=O)NCc1ccccc1 (stereo not given) | – | > 100 | – | > 100 | – | > 100 | – | > 100 | – | > 100 | – | > 100 | – | – | – | > 100 | – | > 100 | – | > 100
16 | CCCCCCCCCCCCCC[n+]1cccc(C(N)=O)c1 | 3.73 | 19.6 | 0.675 | 2.02 | – | – | 2.34 | 8.46 | 1.98 | 6.72 | 0.197 | 0.681 | 1.45 | 3.94 | 3.09 | 10.9 | 1.66 | 4.48 | 1.15 | 3.48
